The values that follow come from US20150119395A1, “NOVEL TRIAZOLE COMPOUNDS THAT MODULATE HSP90 ACTIVITY” (SYNTA PHARMACEUTICALS CORP., priority 2012, published 2015).

This assay relates to Her2. The assay can be described thus: Degradation of Her2 in BT-474 cells, SDS-PAGE/immunoblot, Method 1. The conditions noted are these: 0.5 μM, overnight in DMEM medium. The assay is classed as cell-based, human. Here is the method: BT-474 cells were treated with 0.5 μM, 2 μM, or 5 μM of 17AAG (a positive control) or 0.5 μM, 2 μM, or 5 μM of a compound of the invention overnight in DMEM medium. After treatment, each cytoplasmic sample was prepared from 1×10^6 cells by incubation of cell lysis buffer (#9803, Cell Signaling Technology) on ice for 10 minutes. The resulting supernatant used as the cytosol fractions was dissolved with sample buffer for SDS-PAGE and run on a SDS-PAGE gel, blotted onto a nitrocellulose membrane by using semi-dry transfer. Non-specific binding to nitrocellulose is blocked with 5% skim milk in TBS with 0.5% Tween at room temperature for 1 hour, then probed with anti-Her2/ErB2 mAb (rabbit IgG, #2242, Cell Signaling) and anti-Tubulin (T9026, Sigma) as housekeeping control protein. HRP-conjugated goat anti-rabbit IgG (H+L) and HRP-conjugated horse anti-mouse IgG (H+L) were used as secondary Ab (#7074, #7076, Cell Signaling) and LumiGLO reagent, 20× Peroxide (#7003, Cell Signaling) is used for visualization.
BT-474 cells were treated with 0.5 μM, 2 μM, or 5 μM of 17AAG (a positive control) or 0.5 μM, 2 μM, or 5 μM of a compound of the invention overnight in DMEM medium. After treatment, each cytoplasmic sample was prepared from 1×10^6 cells by incubation of cell lysis buffer (#9803, Cell Signaling Technology) on ice for 10 minutes. […]

For the compound `C=CCNC1=C2C[C@@H](C)C[C@H](OC)[C@H](O)[C@@H](C)/C=C(\C)[C@H](OC(N)=O)[C@@H](OC)/C=C\C=C(/C)C(=O)NC(=CC1=O)C2=O` [Compound 17AAG, 17-allylamino-17-demethoxygeldanamycin], the “Degradation of Her2 (Western blot)” value was “partial degradation”.
